# US20190350890A1, “COMPOSITION FOR PREVENTING OR TREATING HEPATITIS CONTAINING MONOACETYL DIACYLGLYCEROL COMPOUND” (ENZYCHEM LIFESCIENCES CORPORATION, priority 2016, published 2019)
# Assays:
# [1] = system: hepatitis induced by concanavalin A; experiment: Plasma cytokine analysis (ELISA) in Con A-induced hepatitis mice; format: in vivo, Balb/c mice; conditions: Con A 20 mg/kg BW i.v., PLAG oral 100 mg/kg BW, blood 18 hours after Con A
# Experimental: (§1) In order to confirm the preventive and therapeutic effects of hepatitis by 1-palmitoyl-2-linoleoyl-3-acetylglycerol (EC-18 or PLAG), the experiment was performed using an attenuation model of hepatitis induced by concanavalin A (hereinafter, referred to as ConA). As an experimental model, 10-week-old Balb/c mice (Koatech, Korea) were maintained under specific pathogen free (SPF) environment and used, and PLAG and PLG (ENZYCHEM Lifesciences, Korea) were prepared before or after in vivo or in vitro treatment. In addition, Hep3B, HepG2, EL-4 and HL-60 cell lines (American Type Culture Collection, ATCC) were incubated under 5% CO2 and a temperature of 37° C. The values in the comparison between groups performed in vivo were analyzed using one analysis method of the analysis of variance (ANOVA), and the values in the comparison of two experimental groups performed in vitro were analyzed using independent student's t test. Statistical significance was assumed to be p<0.05.
# (§2) Mice were randomly divided into three groups: control group, Con A-treated group, and PLAG-pretreated group. The Con A and PLAG were all dissolved in PBS (phosphate buffer saline) and used. PBS or PLAG was orally administered to the mice, and after 2 hours, 20 mg/kg BW of Con A was intravenously injected into each of the Con A-treated group and the PLAG-pretreated group. Thereafter, PLAG was orally administered to mice at a dose of 100 mg/kg BW. Here, BW means body weight.
# (§3) Blood samples were obtained from cardiac punctures 18 hours after administration of Con A in the mice of Example and centrifuged at 3,000 rpm for 10 minutes. For the measurement of cytokines in liver tissue ligate liquids, the animals were sacrificed and the liver was washed with PBS. The liver was homogenized and filtered using a 70 μm mesh cell strainer (BD Falcon cell strainer, BD Biosciences, Bedford, Mass.) in PBS. The supernatant was also collected by centrifugation at a rate of 2,000 rpm for 5 minutes. The lower cell pellet was resuspended in PBS and analyzed for complete blood cell count (CBC). Plasma samples and supernatants of liver lysate were maintained at minus 20° C. until cytokines were measured. The concentrations of IL-6, IL-10, IL-4, MIP-2 and IFNγ were detected using Set ELISA.
# [2] = system: hepatitis induced by concanavalin A; experiment: Liver tissue cytokine analysis (ELISA, RT-PCR) in Con A-induced hepatitis mice; format: in vivo, Balb/c mice
# Experimental: as §1, §2, §3
# (§4) Total RNA was isolated from the liver homogenate with TRIzol reagent (Incitrogen, Carlsbad, Calif.). HL-60 cells were plated in 12-well plates (1×10^6/well) and treated in the same manner as in Experimental Example 4. cDNA was synthesized from total cellular RNA using M-MLV reverse transcriptase and oligo-dT (Promega, Madison, Wis.).
# (§5) The amount of cDNA amplification of the reaction samples was confirmed by 2% agarose gel (Roche Applied Science, Salt Lake City, Utah) electrophoresis.
# [3] = system: hepatitis induced by concanavalin A; experiment: Hematological analysis (CBC) of whole blood and liver samples; format: in vivo, Balb/c mice; conditions: PLAG additionally administered
# Experimental: as §1, with “Statistical significance was assumed to be p<0.05.” left out
# Whole blood and liver samples were collected from the mice of Example 1 18 hours after administration of Con A. The cleaved liver collected from the mouse was homogenized as described in Experimental Example 1. Complete blood count (CBC) analysis included whole white blood cell quantification, part of neutrophils and lymphocytes of whole white blood cells, and hematology analysis was performed using Mindray BC 5300 (Shenzhen Mindray Bio-medical Electronics, China).
# [4] = system: hepatitis induced by concanavalin A; experiment: Histological analysis of liver (hematoxylin-eosin, anti-neutrophil antibody staining); format: in vivo, Balb/c mice
# Experimental: as §1, §2
# The site of liver was collected from a mouse 8 hours after administration of Con A to the mouse of Example 1. The site of liver was fixed in 10% neutral buffered formalin, embedded in paraffin and cut to a thickness of 5 um. After removing the paraffin and rehydration, the flakes were stained with hematoxylin and eosin. In addition, for identification of neutrophils, the site of liver was stained with anti-mouse neutrophil antibody. All samples were evaluated histologically under a Leica (Leica, Wetzlar, Germany) optical microscope, and digital images were taken at ×200 magnification.
# Hep3B cells = experiment: WST assay, cytotoxicity in Hep3B cells; format: cell-based; conditions: 24 hours of incubation, PLAG 1,000 ug/mL or greater
# Experimental: (§6) FIG. 7 is a graph showing the results of WST assay of […] depending on the dose of PLAG when the composition of the present invention was administered, and FIG. 8 is a graph showing the inhibitory effect of IL-4-induced STAT6 activity and related signaling mechanism depending on the dose of PLAG when the composition of the present invention was administered. […] HepG2 and Hep3B were used as liver cells, and HL-60 was used as neutrophil cells. Cytotoxicity of EC-18 in liver cells and leukocytes was confirmed by WST assay. Survival of Hep3B and HL-60 cells was not affected during 24 hours of incubation with PLAG each having a concentration of 1,000 ug/mL or greater (see FIG. 7). Based on the results of the WST assay, 100, 10, and 1 ug/mL of PLAG were used for the cells. The activities of PKC-ξ/λ, JAK1 and STAT6 played an important role in ConA-induced hepatitis, and these kinases were increased by IL-4. […] Therefore, it can be seen that PLAG can effectively control IL-4-induced hepatitis by alleviating PKC-ξ/λ activity.
# HL-60 cells [5] = experiment: WST assay, cytotoxicity in HL-60 cells; format: cell-based; conditions: 24 hours of incubation, PLAG 1,000 ug/mL or greater
# Experimental: as §6
# STAT6 [6] = experiment: Western blot assay, IL-4-induced STAT6 phosphorylation in Hep3B cells; format: cell-based; conditions: for phosphorylation of STAT6, comparison of PLAG and PLG: Hep3B cells, anti-phospho-STAT6 Western blot
# Experimental: (§7) Hep3B cells were plated in 12 well plates (2.5×10^5 cells/well) and treated with PLAG at various concentrations (0.1, 1, 10, 100 ug/mL), and after 2 hours, activated with IL-4 for 1 hour. Whole protein extracts were immunoblotted with phospho-STAT6, STAT6, phospho-JAK1 and phosphor-PKCξ/λ Abs (cell signaling).
# PKC-ξ/λ = experiment: Western blot assay, IL-4-induced PKC phosphorylation; format: cell-based; conditions: dose-dependent; 0.1, 1, 10, 100 ug/mL, 2 hours before IL-4 for 1 hour
# Experimental: as §7
# (§8) HL-60 cells were plated in 12-well plates (1×10^6/well) and treated as described above. Total protein extracts were immunoblotted with phospho-PKC homologous proteins (δ, θ, ξ/λ, α/β) (Cell Signaling) and GAPDH Abs (Santa Cruz Biotechnology Inc., CA). Detection was performed using Immobilon Western Chemiluminescent HRP Substrate (Millipore Corporation, Billerica, Mass.).
# PKCδ = experiment: Western blot assay, phospho-PKC isotypes in HL-60 cells: PKCδ; format: cell-based; conditions: IL-4 stimulation
# Experimental: as §8
# PKCθ = experiment: Western blot assay, phospho-PKC isotypes in HL-60 cells: PKCθ; format: cell-based; conditions: IL-4 stimulation
# Experimental: as §8
# PKCα/β = experiment: Western blot assay, phospho-PKC isotypes in HL-60 cells: PKCα/β; format: cell-based; conditions: IL-4 stimulation
# Experimental: as §8
# STAT6 [7] = experiment: Luciferase reporter gene analysis, STAT6 transcriptional activity in HepG2 and Hep3B cells; format: cell-based; conditions: 10 and 100 ug/ml of PLAG; 10 ng/ml IL-4 for 6 hours
# Experimental: HepG2 and Hep3B cells were transfected into reporter luciferase plasmids containing four pairs of STAT6 binding sites (p4xSTAT6-Luc2P; Addgene, Cambridge, Mass.), and the reporter vector was transfected into the Attractene reagent and cell line. For the activity of STAT6 reporter vectors, 10 ng/ml of IL-4 was treated with cells for 6 hours, and the luciferase activity was measured by a luminometer using a luciferase assay system. The luciferase activity of each sample was normalized to those corresponding to the PLAG transduced samples.
# HL-60 cells [8] = experiment: RT-PCR analysis of IL-8 and VCAM-1 expression in IL-4-stimulated HL-60 cells; format: cell-based, human; conditions: HL-60 cells stimulated by IL-4, RT-PCR, dose-dependent
# Experimental: as §4, §5
# HL-60 cells [9] = experiment: Neutrophil adsorption analysis on fibronectin; format: cell-based; conditions: 100, 10, and 1 ug/mL of PLAG; 10 ng/ml of IL-4; WST-1 assay and cell number
# Excerpt: In order to determine the effect of PLAG on neutrophil adsorption of fibronectin, 24-well tissue culture plates were coated with fibronectin as in previous studies (Wang Y H, Wang W Y, Liao J F, Chen C F, Hou Y C, Liou K T, Chou Y C, et al. Prevention of macrophage adhesion molecule-1 (Mac-1)-dependent neutrophil firm adhesion by taxifolin through impairment of protein kinase-dependent NADPH oxidase activation and antagonism of G protein-mediated calcium influx. Biochem Pharmacol 2004; 67:2251-2262.). The plates were incubated with 25 ug/ml of fibronectin at 37° C. for 2 hours. The unbounded protein was removed by washing, neutrophils were pre-treated with PLAG 2 hours before the experiment, and neutrophil activity was performed with IL-4 for 4 hours. Non-adsorbed neutrophils were eluted by aspiration and washed twice with PBS. Attached neutrophils were determined by calculating the number of cells at the bottom of each well using a homocytometer. The remaining adsorbed cells were stored in an incubator for 18 hours, at which time the cells were exposed to WST-1 reagent (Roche Applied Science) for spectrometric evaluation.
# [10] = ConA-administered mice, PLAG further administered, vs ConA group
# [11] = RT-PCR, ConA-induced liver tissue
compound,measurement,setting,value
"CCCCC/C=C\C/C=C\CCCCCCCC(=O)OC(COC(C)=O)COC(=O)CCCCCCCCCCCCCCC (racemic) [PLAG, 1-palmitoyl-2-linoleoyl-3-acetyl-rac-glycerol]",IL-4 in mouse plasma,[1]; vs Con A group,decreased
same,IL-6 in mouse plasma,[1]; vs Con A group,decreased
same,IL-10 in mouse plasma,[1]; vs Con A group,decreased
same,MIP-2 in mouse plasma,[1]; vs Con A group,decreased
same,concentration of IFNγ in plasma,[1]; vs mice not treated with PLAG,not significantly reduced
same,expression of IL-4 (protein and mRNA) in liver tissue,[2]; [10],significantly reduced
same,expression of MIP-2 (protein and mRNA) in liver tissue,[2]; [10],significantly reduced
same,expression of CXCR4 mRNA in liver tissue,[2]; [11],down-regulates
same,expression of adsorbed molecules ICAM-1 and VCAM in liver tissue,[2]; [11],does not affect
same,circulating neutrophils in blood,[3]; CBC 18 hours after Con A,significantly increased
same,number of neutrophils present in the liver,[3]; CBC of liver homogenate 18 hours after Con A,significantly reduced
same,neutrophils in liver enhanced by stimulation with ConA,"[4]; anti-neutrophil antibody staining, liver 8 hours after Con A",effectively alleviated
same,"pathological changes of liver (hepatocyte damage, neutrophil infiltration, necrotic foci)","[4]; hematoxylin-eosin staining, PLAG 100 mg/kg, 8 hours after ConA i.v.",markedly reduced
same,liver cell damage,"[4]; liver 8 hours after Con A, immunohistological staining, vs ConA-treated liver tissue",hardly damaged
same,survival of Hep3B cells,Hep3B cells,not affected
same,survival of HL-60 cells,HL-60 cells [5],not affected
same,"phosphorylation of STAT6, comparison of PLAG and PLG",STAT6 [6],significantly reduced
same,phosphorylation of STAT6 induced by IL-4,"STAT6 [6]; dose-dependent, 0.1, 1, 10, 100 ug/mL, 2 hours before IL-4 for 1 hour",considerably alleviated
same,phosphorylation of PKC induced by IL-4,PKC-ξ/λ,considerably alleviated
same,relaxation of the activity of PKCδ,PKCδ,affects the relaxation
same,relaxation of the activity of PKCθ,PKCθ,affects the relaxation
same,relaxation of PKCα/β activity,PKCα/β,did not affect
same,STAT6 transcriptional activity,STAT6 [7],effectively prevented
same,expression of IL-8,HL-60 cells [8],effectively suppressed
same,expression of VCAM-1,HL-60 cells [8],effectively suppressed
same,adsorption of HL-60 to coated fibronectin,HL-60 cells [9],significantly reduced
"CCCCC/C=C\C/C=C\CCCCCCCC(=O)OC(CO)COC(=O)CCCCCCCCCCCCCCC (stereo not drawn) [PLG, reference compound]","phosphorylation of STAT6, comparison of PLAG and PLG",STAT6 [6],not altered
